“And” between values parts separate entries of the source, which are not always exact repeats. Identical values can stand only once.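 Five concentrations, 48 hours, 96-well plates. GI50: concentration for 50% inhibition of growth. The concentration for full growth arrest is given as TGI.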
What was measured:
Experiment in all cases: inhibition of tumour cell growth, NCI panel, 48 h
SW-620 colon = system: SW-620 colon
HL-60(TB) leukemia = system: HL-60(TB) leukemia
HOP-92 NSCLC = system: HOP-92 NSCLC
SK-MEL-28 melanoma = system: SK-MEL-28 melanoma
MDA-MB-231 breast = system: MDA-MB-231 breast
HS 578T breast = system: HS 578T breast
M14 melanoma = system: M14 melanoma
KM12 colon = system: KM12 colon
MDA-N = system: MDA-N

| SMILES | GI50 (SW-620 colon) | TGI (SW-620 colon) | GI50 (HL-60(TB) leukemia) | TGI (HL-60(TB) leukemia) | GI50 (HOP-92 NSCLC) | TGI (HOP-92 NSCLC) | GI50 (SK-MEL-28 melanoma) | TGI (SK-MEL-28 melanoma) | GI50 (MDA-MB-231 breast) | TGI (MDA-MB-231 breast) | GI50 (HS 578T breast) | TGI (HS 578T breast) | GI50 (M14 melanoma) | TGI (M14 melanoma) | GI50 (KM12 colon) | TGI (KM12 colon) | TGI (MDA-N) |
| --- | --- | --- | --- | --- | --- | --- | --- | --- | --- | --- | --- | --- | --- | --- | --- | --- | --- |
| Cc1cc(-c2cc(OC(=O)c3ccccc3)ccc2Cl)cc2nnc(Nc3ccc(OCCN4CCCC4)cc3)nc12 | 0.265 µM | 0.571 µM | 2.47 µM | 4.69 µM | 0.303 µM | 1.69 µM | 1.5 µM | 2.93 µM | 1.05 µM | 2.31 µM | 1.58 µM | 3.94 µM | 1.64 µM | 3.24 µM | 1.84 µM | 3.42 µM | – |
| Cc1cnc(-c2ccc(-c3ccc(NC(=O)Nc4c(F)cc(F)cc4F)cc3F)c3c2C(=O)NC3)[nH]1 | 0.43 µM | 2.19 µM | 1.1 µM and 0.946 µM | 12.9 µM and 16.9 µM | 1.31 µM and 2.01 µM | 6.37 µM and 12.1 µM | 1.16 µM and 0.642 µM | 9.69 µM and 5.48 µM | 1.59 µM and 2.51 µM | 8.16 µM and 11.3 µM | 0.351 µM and 1.07 µM | 5.19 µM and 13.5 µM | 0.0392 µM and 0.211 µM | 1.99 µM and 17.1 µM | < 0.01 µM | 2.58 µM and 6.87 µM | – |
| COc1cc(C)[nH]c(=O)c1CNC(=O)c1c(C)n([C@H](C)C2CCN(CC(F)(F)F)CC2)c2ccccc12 | 65.3 µM | > 100 µM | 28.5 µM | 82.9 µM | 78.5 µM | > 100 µM | 60.8 µM | > 100 µM | 51 µM | > 100 µM | 95.3 µM | > 100 µM | 67.8 µM | > 100 µM | 41.6 µM | > 100 µM | – |
| COc1cc(C2CC(c3cccc(Nc4ccnc5cc(Cl)ccc45)c3)=NN2c2ccccc2)cc(OC)c1OC (centres undefined) | 2.44 µM | > 100 µM | 5.37 µM | > 100 µM | 3.6 µM | > 100 µM | 10.4 µM | > 100 µM | 4.77 µM | > 100 µM | 9.22 µM | > 100 µM | 2.6 µM | > 100 µM | 2 µM | > 100 µM | – |
| CC(=O)N[C@@H](Cc1ccc(OP(=O)(O)O)cc1)C(=O)N[C@H]1CCC(=O)N2CCC[C@@H](C(=O)NC3CCc4ccccc43)N2C1=O (some centres undefined) | > 25 µM | > 25 µM | > 25 µM | > 25 µM | > 25 µM | > 25 µM | > 25 µM | > 25 µM | > 25 µM | > 25 µM | > 25 µM | > 25 µM | > 25 µM | > 25 µM | > 25 µM | > 25 µM | – |
| COC1C(=O)CCC2(CO2)C1(O)C1(C)OC1CC=C(C)C (centres undefined) | – | > 100 µM | – | – | – | > 100 µM | – | > 100 µM | – | > 100 µM | – | > 100 µM | – | 53.2 µM | – | > 100 µM | > 100 µM |
| COC(=O)c1c2c(c(C)[n+]([O-])c1C)C(=O)C(NCc1ccc(O)cc1)=CC2=O | 0.934 µM | 2.72 µM | 2.46 µM | 5.69 µM | 2.52 µM | 5.12 µM | 2.26 µM | 4.36 µM | 1.38 µM | 4.34 µM | 2.3 µM | 6.98 µM | 1.55 µM | 3.12 µM | 1.7 µM | 4.1 µM | – |
| COc1cc2c(cc1-c1coc3cc(O)ccc3c1=O)OCO2 | – | > 100 µM | – | > 100 µM | – | 67.6 µM | – | > 100 µM | – | – | – | 58.2 µM | – | > 100 µM | – | > 100 µM | > 100 µM |
| Nc1n[nH]c2ccc([C@@H]3Nc4ccc5cn[nH]c5c4[C@H]4C5CCC(C5)[C@@H]34)cc12 (some centres undefined) | 0.401 µM | > 100 µM | 0.326 µM | – | 2.14 µM | > 89.4 µM | 1.05 µM | > 100 µM | 0.874 µM | > 53.4 µM | 0.389 µM | > 100 µM | 0.317 µM | > 100 µM | 0.47 µM | 28 µM | – |
| CC(=O)ON=C1C=CC(=C(C#N)c2ccccc2)C=C1 | 0.452 µM | 7.76 µM | 1.11 µM | 4.87 µM | 1.67 µM | 6.99 µM | 8.77 µM | 61.4 µM | 2.63 µM | > 28.5 µM | 3.51 µM | > 31.3 µM | 1.89 µM | 9.9 µM | 0.357 µM | 1.71 µM | – |
| Cc1cc(C)c2c(c1)N(C)c1ncnc(-n3cnc4cc(C)ccc43)c1CC2C (centres undefined) | 4.1 µM | 64.1 µM | 2.46 µM | 9.36 µM | 4.1 µM | 32.9 µM | 5.61 µM | 20.7 µM | 3.03 µM | 14.6 µM | 3 µM | 31 µM | 2.6 µM | 11.2 µM | 3.67 µM | 26 µM | – |
| CO/C(=C1/NC(=O)C(Cc2ccc(O)c(Br)c2)N(C)C(=O)C(C)NC(=O)CCC/C=C(\C)CCC(C)OC1=O)c1ccccc1 (centres undefined) | 0.0146 µM | 33.3 µM | 0.033 µM | 0.999 µM | 0.0246 µM | 0.0612 µM | < 0.0134 µM | 0.0419 µM | 0.0348 µM | 6.58 µM | 0.0225 µM | 0.0553 µM | < 0.0205 µM | – | 0.0784 µM | 19.2 µM | – |
| Cn1c(=O)c(Oc2ccc(F)cc2F)cc2cnc(NCC(C)(C)O)nc21 | > 25 µM | > 25 µM | > 25 µM | > 25 µM | > 25 µM | > 25 µM | > 25 µM | > 25 µM | > 25 µM | > 25 µM | > 25 µM | > 25 µM | > 25 µM | > 25 µM | > 25 µM | > 25 µM | – |
| COc1cc2c(cc1OCCCN1CCN(C(=S)SCCC(C#N)(c3ccccc3)c3ccccc3)CC1)N=C[C@@H]1CCCN1C2=O | 0.514 µM | 1.94 µM | 0.876 µM | – | 0.545 µM | 3.85 µM | 1.65 µM | 3.07 µM | 1.32 µM | 3.19 µM | 0.56 µM | 3.68 µM | 1.17 µM | 2.67 µM | 1.64 µM | – | – |

— PubChem BioAssay (NCI)
